# Tested on: Escherichia coli (ATCC25922) or Staphylococcus aureus (ATCC25923)
# Test: Antibacterial MIC, microdilution method in Mueller-Hinton medium
# Format: cell-based
# Conditions: Escherichia coli, 18 h, MIC in E. coli or S. aureus; two-fold serial dilutions 64 to 0.5 μg/ml in duplicate; 18 hours of incubation at 35° C.; read-out: Potency (MIC)
# Outline: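 Read after 18 h incubation at 35° C, MIC is the lowest compound level that blocked growth. Compounds were tested in duplicate over 64–0.5 μg/ml two-fold dilutions using Mueller-Hinton microdilution per NCCLS standard.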
row,MIC,Compound
1,> 64 µg/mL,"N[C@@H]1C[C@H](N)CN(c2nc(Nc3cccc(OC(F)(F)F)c3)nc(N3C[C@H](N)C[C@H](N)C3)n2)C1 [N-(3-trifluoromethoxy-phenyl)-4,6-Bis-((3R,5S)-3,5-diamino-piperidin-1-yl)-[1,3,5]triazine-2-amine]"
2,> 64 µg/mL,"COc1ccc(OC)c(Nc2nc(N3C[C@H](N)C[C@H](N)C3)nc(N3C[C@H](N)C[C@H](N)C3)n2)c1 [N-(2,5-dimethoxy-phenyl)-4,6-Bis-((3R,5S)-3,5-diamino-piperidin-1-yl)-[1,3,5]triazine-2-amine]"
3,< 64 µg/mL,"CSc1cccc(Nc2nc(N3C[C@H](N)C[C@H](N)C3)nc(N3C[C@H](N)C[C@H](N)C3)n2)c1.Cl [N-(3-methyylsulfanyl-phenyl)-4,6-Bis-((3R,5S)-3,5-diamino-piperidin-1-yl)-[1,3,5]triazine-2-amine]"
4,< 16 µg/mL,"Cl.O=C(CC(=O)c1ccc(Nc2nc(N3CCCCC3)nc(N3CCCCC3)n2)cc1)Nc1cccc(Br)c1 [N-{4-[2-(3-bromo-phenylcarbamoyl)-acetyl]-phenyl}-4,6-Biss-((3R,5S)-3,5-diamino-piperidin-1-yl)-[1,3,5]triazine-2-amine]"
5,> 64 µg/mL,"Cc1cc(=O)oc2cc(Nc3nc(N4C[C@H](N)C[C@H](N)C4)nc(N4C[C@@H](N)C[C@@H](O)C4)n3)ccc12 [7-[4-((3S,5R)-3-Amino-5-hydroxy-piperidin-1-yl)-6-((3R,5S)-3,5-diamino-piperidin-1-yl)-[1,3,5]triazin-2-ylamino]-4-methyl-chromen-2-one]"
6,> 64 µg/mL,"N[C@@H]1C[C@H](N)CN(c2nc(Nc3ccc(S(=O)(=O)Nc4ccc5cn[nH]c5c4)cc3)nc(NC3CCCNC3)n2)C1 (stereo partly drawn) [4-[4-((3S,5R)-3,5-Diamino-piperidin-1-yl)-6-(piperidin-3-ylamino)-[1,3,5]triazin-2-ylamino]-N-(1H-indazol-6-yl)-benzenesulfonamide]"
7,> 64 µg/mL,"CC(C)(C)C(=O)Nc1ccc(S(=O)(=O)Nc2ccc(Nc3nc(N4C[C@H](N)C[C@H](N)C4)nc(N4C[C@H](N)C[C@H](N)C4)n3)cc2O)cc1.Cl [N-{4-[4-(2,2-dimethyl-propionylamino)-benzenesulfonylamino]-3-hydroxy-phenyl}-4,6-Bis-((3R,5S)-3,5-diamino-piperidin-1-yl)-[1,3,5]triazine-2-amine]"
8,> 64 µg/mL,"Cc1csc2c(NNc3nc(N4C[C@H](N)C[C@H](N)C4)nc(N4C[C@H](N)C[C@H](N)C4)n3)ncnc12.Cl [N-(4,6-Bis-((3R,5S)-3,5-diamino-piperidin-1-yl)-[1,3,5]triazin-2-yl)-N′-(7-Methyl-thieno[3,2-d]pyrimidin-4-yl)-hydrazine]"
9,< 64 µg/mL,"CC(C)(C)C(=O)Nc1ccc(Nc2nc(N3CCCCC3)nc(N3CCCCC3)n2)cc1O.Cl [N-[4-(2,2-dimethyl-propionylammino)-3-hydroxy-phenyl]-4,6-Bis-((3R,5S)-3,5-diamino-piperidin-1-yl)-[1,3,5]triazine-2-amine]"
10,< 16 µg/mL,"N[C@@H]1C[C@H](N)CN(c2nc(Nc3ccc(NC(=O)C45CC6CC(CC(C6)C4)C5)c(O)c3)nc(N3C[C@H](N)C[C@H](N)C3)n2)C1 [N-{4-[(adamantane-1-carbonyl)-amino]-3-hydroxy-phenyl}-4,6-Bis-((3R,5S)-3,5-diamino-piperidin-1-yl)-[1,3,5]triazine-2-amine]"
11,> 64 µg/mL,"Cl.N[C@@H]1C[C@H](N)CN(c2nc(N3C[C@H](N)C[C@H](N)C3)nc(N(c3ccccc3)c3ccc(O)cc3)n2)C1 [4-{[4,6-Bis-((3R,5S)-3,5-diamino-piperidin-1-yl)-[1,3,5]triazin-2-yl]-phenyl-amino}-phenyl]"
12,> 64 µg/mL,"Cl.N[C@@H]1C[C@H](N)CN(c2nc(Nc3ccccc3S(N)(=O)=O)nc(N3C[C@H](N)C[C@H](N)C3)n2)C1 [N-(2-sulfamoyl-phenyl)-4,6-Bis-((3R,5S)-3,5-diamino-piperidin-1-yl)-[1,3,5]triazine-2-amine]"

row,Compound,MIC
1,"Cc1ccc(C(=O)Nc2ccc(Nc3nc(N4C[C@H](N)C[C@H](N)C4)nc(N4C[C@H](N)C[C@H](N)C4)n3)cc2O)c(O)c1 [N-[3-hydroxy-4-(2-hydroxy-4-methyl-benzoylamino)-phenyl]-4,6-Bis-((3R,5S)-3,5-diamino-piperidin-1-yl)-[1,3,5]triazine-2-amine]",< 16 µg/mL

# Same assay, conditions: Escherichia coli, 18 h, read-out: Potency (MIC)
row,Compound,MIC
1,"Cc1ccc(S(=O)(=O)N(Cc2ccccc2)c2ccc(Nc3nc(N4C[C@H](N)C[C@H](N)C4)nc(N4C[C@@H](N)[C@@H](N)C4)n3)cc2O)cc1 [N-Benzyl-N-{4-[4-((3R,5S)-3,5-diamino-piperidin-1-yl)-6-((3R,4S)-3,4-diamino-pyrrolidin-1-yl)-[1,3,5]triazin-2-ylamino]-2-hydroxy-phenyl}-4-methyl-benzenesulfonamide]",< 16 µg/mL
2,"N[C@@H]1C[C@H](N)CN(c2nc(NNc3cccc(Cl)c3)nc(N3C[C@H](N)C[C@H](N)C3)n2)C1 [N-(4,6-Bis-((3R,5S)-3,5-diamino-piperidin-1-yl)-[1,3,5]triazin-2-yl)-N′-(3-Chloro-phenyl)-hydrazine]",< 64 µg/mL
3,"N[C@@H]1C[C@H](N)CN(c2nc(Nc3ccc(C(=O)CC(=O)Nc4ccc(SC(F)(F)F)cc4)cc3)nc(N3C[C@@H](N)C[C@H]3CO)n2)C1 [3-{4-[4-((2S,4S)-4-Amino-2-hydroxymethyl-pyrrolidin-1-yl)-6-((3R,5S)-3,5-diamino-piperidin-1-yl)-[1,3,5]triazin-2-ylamino]-phenyl}-3-oxo-N-(4-trifluoromethylsulfanyl-phenyl)-propionamide]",< 16 µg/mL
4,"NC[C@@H]1CN(c2nc(Nc3ccc4c(c3)-c3ccccc3C4=O)nc(N3C[C@H](N)C[C@H](N)C3)n2)CC[C@@H]1O [3-[4-((3R,4S)-3-Aminomethyl-4-hydroxy-piperidin-1-yl)-6-((3R,5S)-3,5-diamino-piperidin-1-yl)-[1,3,5]triazin-2-ylamino]-fluoren-9-one]",> 64 µg/mL
5,"Cc1cc(Nc2nc(N3C[C@H](N)C[C@H](N)C3)nc(N3C[C@H](N)C[C@H](N)C3)n2)ccc1NC(=O)c1cccc([N+](=O)[O-])c1O [N-[4-(2-hydroxy-3-nitro-benzoylamino)-3-methyl-phenyl]-4,6-Bis-((3R,5S)-3,5-diamino-piperidin-1-yl)-[1,3,5]triazine-2-amine]",< 64 µg/mL
6,"N[C@@H]1C[C@H](N)CN(c2nc(NNc3ccccc3F)nc(N3C[C@H](N)C[C@H](N)C3)n2)C1 [N-(4,6-Bis-((3R,5S)-3,5-diamino-piperidin-1-yl)-[1,3,5]triazin-2-yl)-N′-(2-Fluoro-phenyl)-hydrazine]",> 64 µg/mL
7,"N[C@@H]1C[C@H](N)CN(c2nc(Nc3ccc(NC(=O)c4ccc(F)c(F)c4O)cc3)nc(N3C[C@H](N)C[C@H](N)C3)n2)C1 [N-[4-(3,4-difluoro-2-hydroxy-benzoylamino)-phenyl]-4,6-Bis-((3R,5S)-3,5-diamino-piperidin-1-yl)-[1,3,5]triazine-2-amine]",< 64 µg/mL
8,"COc1nc(Nc2ccc(NC(=O)c3ccc(C)cc3)c(O)c2)nc(N2C[C@H](N)C[C@H](N)C2)n1 [N-{4-[4-((3R,5S)-3,5-Diamino-piperidin-1-yl)-6-methoxy-[1,3,5]triazin-2-ylamino]-2-hydroxy-phenyl}-4-methyl-benzamide]",< 64 µg/mL
9,"N[C@@H]1C[C@H](N)CN(c2nc(Nc3ccc(NC(=O)c4ccc(Cl)cc4O)c(O)c3)nc(N3C[C@H](N)C[C@H](N)C3)n2)C1 [N-[4-(4-chloro-2-hydroxy-benzoylamino)-3-hydroxy-phenyl]-4,6-Bis-((3R,5S)-3,5-diamino-piperidin-1-yl)-[1,3,5]triazine-2-amine]",< 16 µg/mL
10,"COc1ccc(NC(=O)c2ccc(C)cc2O)c(Nc2nc(N3C[C@H](N)C[C@H](N)C3)nc(N3C[C@H](N)C[C@H](N)C3)n2)c1 [N-[2-(2-hydroxy-4-methyl-benzoylamino)-5-methoxy-phenyl]-4,6-Bis-((3R,5S)-3,5-diamino-piperidin-1-yl)-[1,3,5]triazine-2-amine]",> 64 µg/mL
11,"N[C@@H]1C[C@H](N)CN(c2cc(Nc3ccc([N+](=O)[O-])cc3)cc(N3C[C@H](N)C[C@H](N)C3)c2)C1 [(3,5-Bis-((3R,5S)-3,5-diamino-piperidin-1-yl)-phenyl)-(4-nitro-phenyl)-amine]",> 64 µg/mL
12,"NC[C@@H]1C[C@@H](O)CN1c1nc(Nc2ccc3c(c2)C(=O)c2ccccc2-3)nc(N2C[C@H](N)C[C@H](N)C2)n1 [2-[4-((2S,4R)-2-Aminomethyl-4-hydroxy-pyrrolidin-1-yl)-6-((3R,5S)-3,5-diamino-piperidin-1-yl)-[1,3,5]triazin-2-ylamino]-fluoren-9-one]",> 64 µg/mL
13,"N[C@@H]1C[C@H](N)CN(c2nc(Nc3ccc(C(=O)CC(=O)Nc4ccc(F)c(Cl)c4)cc3)nc(N3C[C@H](N)C[C@H](N)C3)n2)C1 [N-{4-[2-(3-chloro-4-fluoro-phenylcarbamoyl)-acetyl]-phenyl}-4,6-Bis-((3R,5S)-3,5-diamino-piperidin-1-yl)-[1,3,5]triazine-2-amine]",< 16 µg/mL
14,"N[C@@H]1C[C@H](N)CN(c2nc(Nc3ccc(NC(=O)c4ccc(Cl)cc4O)c(C(=O)Nc4ccccc4)c3)nc(N3C[C@H](N)C[C@H](N)C3)n2)C1 [N-[4-(4-chloro-2-hydroxy-benzoylamino)-3-phenylcarbamoyl-phenyl]-4,6-Bis-((3R,5S)-3,5-diamino-piperidin-1-yl)-[1,3,5]triazine-2-amine]",< 16 µg/mL
15,"Cc1ccc(S(=O)(=O)N(Cc2ccccc2)c2ccc(Nc3nc(N4C[C@H](N)C[C@H](N)C4)nc(N4C[C@H](O)C[C@H]4CN)n3)cc2O)cc1 [N-{4-[4-((2S,4R)-2-Aminomethyl-4-hydroxy-pyrrolidin-1-yl)-6-((3R,5S)-3,5-diamino-piperidin-1-yl)-[1,3,5]triazin-2-ylamino]-2-hydroxy-phenyl}-N-benzyl-4-methyl-benzenesulfonamide]",< 64 µg/mL

# From patent US7223759B2, “Antibacterial 3,5-diaminopiperidine-substituted aromatic and heteroaromatic compounds” (Anadys Pharmaceuticals, Inc., priority 2003, dated 2007)
